The source of these data is US9073918B2, “Pyrazolo[4,3-b]pyridine-7-amine inhibitors of ALK5” (Takeda Pharmaceutical Company Limited, priority 2010, dated 2015).

For one data set, the target named is T1, TGF-β R1 ALK5 (Homo sapiens, UniProt P36897).
T1 construct: purchased Invitrogen PV5837
T1 sequence (P36897 34-503): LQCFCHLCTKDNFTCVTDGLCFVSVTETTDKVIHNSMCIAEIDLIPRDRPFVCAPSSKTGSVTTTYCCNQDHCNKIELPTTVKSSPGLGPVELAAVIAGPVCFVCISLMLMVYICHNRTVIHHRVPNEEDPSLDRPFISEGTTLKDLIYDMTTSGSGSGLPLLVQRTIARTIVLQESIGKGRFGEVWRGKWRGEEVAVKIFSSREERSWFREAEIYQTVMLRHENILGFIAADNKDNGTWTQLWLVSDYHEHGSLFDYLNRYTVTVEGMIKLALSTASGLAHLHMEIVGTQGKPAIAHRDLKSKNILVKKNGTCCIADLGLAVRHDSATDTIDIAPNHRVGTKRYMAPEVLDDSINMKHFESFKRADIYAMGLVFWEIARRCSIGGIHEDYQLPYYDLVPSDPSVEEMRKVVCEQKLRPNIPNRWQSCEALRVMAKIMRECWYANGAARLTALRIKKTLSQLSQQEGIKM
Kind of data set: In vitro inhibition of ALK5 (LanthaScreen activity assay, TR-FRET). The data set is classed as biochemical.

The next data set has as its target T2, cellular TGF-β R1 ALK5 (Homo sapiens, UniProt P36897).
T2 construct: host or cells: CellSensor SBE-bla HEK 293T
T2 sequence (P36897 34-503): T1 sequence (P36897 34-503)
Nature of the data set: Cellular inhibition of ALK5 (CellSensor SBE-bla HEK 293T beta-lactamase reporter). The settings on record: cellular inhibition of ALK5, SBE-bla HEK 293T cells, TGFb-1 stimulated 5 hours; average where measured in multiple experiments. It is filed as cell-based. In outline:
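pIC50 derives from non-linear fitting of percent inhibition of the 460/530 nm CCF4-AM emission ratio, relative to DMSO+TGF-β wells. HEK 293T SBE-bla cells received compound (0.5% DMSO) for 1 h, TGFb-1 (100 ng/mL stock) for 5 h at 37 °C, then substrate 2 h at RT.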

SMILES strings stand for the structures. Where a name gives a salt, the structure may show the parent alone.

With `Cc1ccc(F)c(-c2cc(Nc3ccnc4cn(C[C@H](O)CO)nc34)ccn2)n1` (as salt: HCl) [Example 69, (S)-3-(7-(3′-fluoro-6′-methyl-2,2′-bipyridin-4-ylamino)-2H-pyrazolo[4,3-b]pyridin-2-yl)propane-1,2-diol], the melting point (commonly the temperature of the solid-liquid transition) lay in the range of 182 to 184 °C. `CCNC(=O)n1ncc2nccc(Nc3ccnc(-c4cc(Cl)ccc4F)c3)c21` (as salt: TFA) [Example 29, 7-(2-(5-chloro-2-fluorophenyl)pyridin-4-ylamino)-N-ethyl-1H-pyrazolo[4,3-b]pyridine-1-carboxamide] yielded a melting point of 256 °C. In turn, `CNC(=O)n1ncc2nccc(Nc3ccnc(-c4cc(Cl)ccc4F)c3)c21` (as salt: TFA) [Example 32, 7-(2-(5-chloro-2-fluorophenyl)pyridin-4-ylamino)-N-methyl-1H-pyrazolo[4,3-b]pyridine-1-carboxamide] displayed a melting point of 256 °C.

`CN(C)C(=O)Cn1ncc2nccc(Nc3ccnc(-c4cc(Cl)ccc4F)c3)c21` (as salt: TFA) [Example 38, 2-(7-(2-(5-chloro-2-fluorophenyl)pyridin-4-ylamino)-1H-pyrazolo[4,3-b]pyridin-1-yl)-N,N-dimethylacetamide] registered a melting point of 293 °C. `NC(=O)Cn1ncc2nccc(Nc3ccnc(-c4cc(Cl)ccc4F)c3)c21` (as salt: TFA) [Example 44, 2-(7-(2-(5-chloro-2-fluorophenyl)pyridin-4-ylamino)-1H-pyrazolo[4,3-b]pyridin-1-yl)acetamide] came in with a melting point of 131 to 132 °C.

For `CNC(=O)n1ncc2nccc(Nc3cc(-c4cc(Cl)ccc4F)ncc3C)c21` (as salt: TFA) [Example 52, 7-(2-(5-chloro-2-fluorophenyl)-5-methylpyridin-4-ylamino)-N-methyl-1H-pyrazolo[4,3-b]pyridine-1-carboxamide], the melting point was found to be 135 °C. In turn, `Cc1cnc(-c2cc(Cl)ccc2F)cc1Nc1ccnc2cnn(C(=O)NC(C)C)c12` (as salt: TFA) [Example 54, 7-(2-(5-chloro-2-fluorophenyl)-5-methylpyridin-4-ylamino)-N-isopropyl-1H-pyrazolo[4,3-b]pyridine-1-carboxamide] yielded a melting point of 292 °C. The compound `CNC(=O)n1ncc2nccc(Nc3cc(C)nc(-c4cc(Cl)ccc4F)c3)c21` (as salt: TFA) [Example 58, 7-(2-(5-chloro-2-fluorophenyl)-6-methylpyridin-4-ylamino)-N-methyl-1H-pyrazolo[4,3-b]pyridine-1-carboxamide] registered a melting point of 248 °C. Turning to `CCNC(=O)n1ncc2nccc(Nc3cc(C)nc(-c4cc(Cl)ccc4F)c3)c21` (as salt: TFA) [Example 59, 7-(2-(5-chloro-2-fluorophenyl)-6-methylpyridin-4-ylamino)-N-ethyl-1H-pyrazolo[4,3-b]pyridine-1-carboxamide], the melting point was found to be 245 °C. Compound `Cc1ccc(F)c(-c2cc(Nc3ccnc4cnn(CC(C)(C)O)c34)ccn2)n1` (as salt: TFA) [Example 70, 1-(7-(3′-fluoro-6′-methyl-2,2′-bipyridin-4-ylamino)-1H-pyrazolo[4,3-b]pyridin-1-yl)-2-methylpropan-2-ol] had a melting point of 135 to 136 °C. The compound `Cc1ccc(F)c(-c2cc(Nc3ccnc4cn(C)nc34)c(C)cn2)n1` [Example 123, N-(3′-fluoro-5,6′-dimethyl-2,2′-bipyridin-4-yl)-2-methyl-2H-pyrazolo[4,3-b]pyridin-7-amine] came in with a melting point of 102.9 to 103 °C. Further, at TGF-β R1 ALK5, the IC50 (commonly the point on the concentration scale where inhibition reaches its midpoint) was 25.1 nM. The IC50 against cellular TGF-β R1 ALK5 was 79.4 nM.
